Source: patent publication US10294262B2, “7-deazapurine nucleosides for therapeutic uses” (Institute of Organic Chemistry and Biochemistry ASCR, V.V.I., priority 2009, dated 2019)

Columns and labels:
[1] = tested on: MT-4 T-lymphoid cell line; test: Test B: Cytostatic cell culture assay (CC50), CellTiter Glo, lymphoid tumor cell lines; details: Homo sapiens, MT4, 120 h, read-out: CC50 T-lymphoid MT-4
Protocol: Test B: Cytostatic Cell Culture Assay (CC50) for Lymphoid Tumor Cell Lines
This test is typically performed with cell lines that are derived from hematological tumors and grow in suspension. An example of such cell line is human MT-4 T-lymphoid cell line used for the determination of cytostatic activity of tested compounds. […] Cells were passaged in suspension twice a week and maintained at densities below 500,000 cells/mL. For CC50 determination, cells were seeded into 384-well plates at 2,000 cells/well in 20 μL of culture medium. Compounds were serially diluted in culture medium and added in triplicate to a final assay volume of 40 μL/well. Plates were incubated for 5 days with tested compounds. At the end of incubation, cell viability was determined by addition of 40 μL of CellTiter Glo reagent followed by a luminescence read-out.
Data analysis and CC50 value calculations were done using GraphPad Prism software (GraphPad Software, San Diego, Calif.) by applying nonlinear regression.

human tumor cell lines = test: Tests A and B, all tumor cell lines together; format: cell-based; details: read-out: CC50 Geometric mean all
Protocol: (§1) • 1. […] Fix one plate of each cell line with TCA. […] Discard TCA from the plates by flicking them gently. […] Store the plates at room temperature. These plates represent cell counts on day zero. • 4. […] Add 50 μL of the diluted compounds per well. […] Fix the plates with TCA. […] Discard TCA from the plates by flicking them gently. […] Leave at room temperature for 30 minutes. • 9. Flick the plates gently to discard SRB.
Plates were incubated for 5 days with tested compounds.

Du145 = test: Test A: Cytostatic cell culture assay (CC50), SRB, solid tumor cell lines; format: cell-based; details: Homo sapiens, DU-145, 120 h, read-out: CC50 Prostate Du145
Protocol: (§2) Gemcitabine is obtained from Moravek Biochemicals (Brea, Calif.)
as §1

HS578 = test: as above; format: cell-based; details: Homo sapiens, Hs578, 120 h, read-out: CC50 Breast HS578
Protocol: as §2, §1

HCT15 = test: as above; format: cell-based; details: Homo sapiens, HCT-15, 120 h, read-out: CC50 Colon HCT15
Protocol: as §2, §1

NCI H23 = test: as above; format: cell-based; details: Homo sapiens, NCI-H23, 120 h, read-out: CC50 Lung NCI H23
Protocol: as §2, §1

HCT116 = test: as above; format: cell-based; details: Homo sapiens, HCT-116, 120 h, read-out: CC50 Colon HCT116
Protocol: as §2, §1

PC3 = test: as above; format: cell-based; details: Homo sapiens, PC-3, 120 h, read-out: CC50 Prostate PC3
Protocol: as §2, §1

A549 = test: as above; details: Homo sapiens, A549, 120 h, read-out: CC50 Lung A549
Source text: Test A: Cytostatic Cell Culture Assay (CC50) for Solid Tumor Cell Lines
This assay is based on quantification of cell mass determination by a colorimetric detection of the cell associated proteins. The assay relies on the ability of sulforhodamine B (SRB) to bind to protein components of cells that have been fixed to tissue-culture plates by trichloroacetic acid (TCA). SRB is a bright-pink aminoxanthene dye with two sulfonic groups that bind to basic amino-acid residues under mild acidic conditions, and dissociate under basic conditions. As the binding of SRB is stochiometric, the amount of dye extracted from stained cells is directly proportional to the cell mass.
Cell lines: All cell lines are obtained from ATCC (Manassas, Va.). Cultivation media containing Glutamax, and trypsin are purchased from Invitrogen (Carlsbad, Calif.). Doxorubicin, Tubercidin, Clofarabine, TCA and SRB are from Sigma-Aldrich (St. Louis, Mo.). Gemcitabine is obtained from Moravek Biochemicals (Brea, Calif.)
• 1. Trypsinize the sub-confluent cells, count them, and adjust the cell concentrations according to the cell counts listed in Table 1. • 2. Distribute the cells into the 96-well plates in 150 μL of media. Incubate the plates overnight in humidified CO2 incubator at 37° C. • 3. Fix one plate of each cell line with TCA. Discard the cultivation media from the plates by flicking them gently and add 100 μL cold 10% (vol/vol) TCA to each well. Incubate the plates at 4 degree refrigerator for 1 hour. Discard TCA from the plates by flicking them gently. Rinse plates four times in a washing basin containing tap water. Store the plates at room temperature. These plates represent cell counts on day zero. • 4. Prepare a set of medium solutions containing various concentrations of tested compounds by making 5-fold serial dilutions in 96-well plate. Add 50 μL of the diluted compounds per well. Include controls with untreated cells and cells treated with doxorubicin, tubercidin, clofarabine and/or gemcitabine. • 5. Incubate the plates for 5 days at 37° C. • 6. Fix the plates with TCA. Discard the cultivation media from the plates by flicking them gently and add 100 μL cold 10% (vol/vol) TCA to each well. Incubate the plates at 4 degree refrigerator for 1 hour. Discard TCA from the plates by flicking them gently. Rinse plates four times in a washing basin containing tap water. • 7. Remove excess water by tapping the plates face down, gently on a paper towel. Allow the plates to air-dry at room temperature. • 8. Add 100 μL of 0.057% SRB solution in 1% (vol/vol) acetic acid to each well of the plates fixed with TCA on day zero and five. Leave at room temperature for 30 minutes. • 9. Flick the plates gently to discard SRB. Rinse the plates four times with 1% (vol/vol) Acetic Acid. • 10. Store the plates at 37° incubator to facilitate faster drying. • 11. Once the plates are completely dry, add 200 μL of 10 mM Tris base solution (pH 10.5) to each well. Leave at room temperature for 30 minutes for SRB to solubilize. • 12. Measure the OD at 500 nm in a microplate reader. • 13. Calculate the percentage of cell-growth inhibition using the next formula: % of control cell growth=100×(ODsample−mean ODday0)/(ODneg control−mean ODday0). For CC50 determination, plot a dose-response curves between the compound concentration and percent of growth inhibition. CC50 values can be derived by fitting dose-response curves using sigmoidal dose response equation.

BT549 = test: Test A: Cytostatic cell culture assay (CC50), SRB, solid tumor cell lines; format: cell-based; details: Homo sapiens, BT-549, 120 h; BT549 breast tumor cells, 5 days, SRB; read-out: CC50 Breast BT549
Protocol: as §2, §1

melting point	SMILES	CC50 [1]	CC50 (human tumor cell lines)	CC50 (Du145)	CC50 (HS578)	CC50 (HCT15)	CC50 (NCI H23)	CC50 (HCT116)	CC50 (PC3)	CC50 (A549)	CC50 (BT549)
–	Nc1nc(Cl)nc2c1ncn2[C@@H]1O[C@H](CO)[C@@H](O)[C@@H]1F [Clofarabine, reference compound]	0.051 µM	0.116 µM	0.125 µM	1.24 µM	0.18 µM	0.04 µM	0.106 µM	0.063 µM	0.086 µM	–
–	COc1ccc(-c2cn([C@@H]3O[C@H](CO)[C@@H](O)[C@H]3O)c3ncnc(N)c23)cc1 [Compound 2b, 4-Amino-5-(4-methoxyphenyl)-7-(β-D-ribofuranosyl)-7H-pyrrolo[2,3-d]pyrimidine]	4.3 µM	0.768 µM	0.152 µM	0.811 µM	0.544 µM	0.856 µM	0.633 µM	1.11 µM	0.701 µM	–
–	Nc1ncnc2c1c(-c1ccco1)cn2[C@@H]1O[C@H](CO)[C@@H](O)[C@H]1O [Compound 2f, 4-Amino-5-(furan-2-yl)-7-(β-D-ribofuranosyl)-7H-pyrrolo[2,3-d]pyrimidine]	0.086 µM	0.0256 µM	0.019 µM	0.017 µM	0.003 µM	0.294 µM	0.048 µM	0.004 µM	0.035 µM	–
–	Nc1ncnc2c1c(-c1cccs1)cn2[C@@H]1O[C@H](CO)[C@@H](O)[C@H]1O [Compound 2g, 4-Amino-7-(β-D-ribofuranosyl)-5-(thiophen-2-yl)-7H-pyrrolo[2,3-d]pyrimidine]	0.035 µM	0.0226 µM	0.133 µM	0.012 µM	0.011 µM	0.0037 µM	0.0026 µM	1.62 µM	0.007 µM	–
205 to 207 °C	Nc1ncnc2c1c(-c1ccc[nH]1)cn2[C@@H]1O[C@H](CO)[C@@H](O)[C@H]1O [Compound 2k, 4-Amino-5-(1H-pyrrol-2-yl)-7-(β-D-ribofuranosyl)-7H-pyrrolo[2,3-d]pyrimidine]	–	0.128 µM	–	0.113 µM	–	0.333 µM	0.0652 µM	0.0878 µM	0.16 µM	0.129 µM
–	Nc1ccn([C@@H]2O[C@H](CO)[C@@H](O)C2(F)F)c(=O)n1 [Gemcitabine, reference compound]	0.002 µM	0.0024 µM	0.003 µM	0.001 µM	0.003 µM	0.002 µM	0.002 µM	0.006 µM	0.007 µM	0.001 µM
–	Nc1ncnc2c1ccn2[C@@H]1O[C@H](CO)[C@@H](O)[C@H]1O [Tubercidin, reference compound]	0.021 µM	0.0103 µM	0.018 µM	0.098 µM	0.011 µM	0.011 µM	0.001 µM	0.048 µM	0.001 µM	–
